From ChEMBL document CHEMBL1201862, “PubChem BioAssay data set” (2004) come the findings set out here.

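Step 1: Grow cells in 96-well plates. Step 2: Expose to compound for 48 hours at 5 concentrations. Step 3: Interpolate endpoints linearly; if unreached, use highest concentration. Abbreviation: GI50, concentration required for 50% inhibition of growth.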 The source made the active and inactive calls. Rule as the data show it: active = GI50 up to about 1.1 µM and inactive = higher. Some results are limits rather than exact numbers.

Among the test systems are OVCAR-5; NCI-H522; RPMI-8226; SF-295; NCI-H23; HCC 2998; ACHN; MOLT-4; HOP-92; SK-MEL-2; NCI-H460; UO-31; SNB-75; HL-60; A498; UACC-62; CCRF-CEM; MCF7; CAKI-1; NCI-H226.
Test in all cases: growth of human tumour cells (NCI), 48 h

In the case of `COCCOCOC(C)(C)[C@H](CCO)O[Si](c1ccccc1)(c1ccccc1)C(C)(C)C`, the GI50 in the assay with OVCAR-5 was 14.1 µM (inactive); in the assay on NCI-H522, 4.57 µM (inactive); in the assay with RPMI-8226, 6.17 µM (inactive); in the assay with SF-295, 5.74 µM (inactive); in the assay on NCI-H23, 15.7 µM (inactive); with HCC 2998, 4.68 µM (inactive). Moreover, the GI50 in the assay on ACHN is 5.68 µM (inactive); with MOLT-4, 3.54 µM (inactive); in the assay on HOP-92, 10.6 µM (inactive); with SK-MEL-2 it was > 10 µM (inactive); in the assay with NCI-H460 it was 5.15 µM (inactive); in the assay with UO-31, 13 µM (inactive). Also, the GI50 is 8.11 µM (inactive) in the assay with SNB-75, 2.39 µM (inactive) with HL-60, 16.7 µM (inactive) with A498 and 12 µM (inactive) with UACC-62.

Regarding `CCCCN(CCCC)c1ccc(/N=N/c2ccc(S(=O)(=O)O)cc2)cc1`, the GI50 in the assay on CCRF-CEM is 18.4 µM (inactive); in the assay on OVCAR-5, 60.8 µM (inactive); in the assay with MCF7 it was 21.9 µM (inactive); in the assay on RPMI-8226, 20.4 µM (inactive); with CAKI-1, 20.2 µM (inactive); with SF-295 it was 40.9 µM (inactive). Further, the GI50 is 20.6 µM (inactive) with NCI-H23; 24 µM (inactive) with HCC 2998; 46.7 µM (inactive) with ACHN; 17.7 µM (inactive) in the assay with MOLT-4; 7 µM (inactive) in the assay on HOP-92; 51.1 µM (inactive) in the assay on SK-MEL-2. Moreover, the GI50 was 34 µM (inactive) in the assay with NCI-H460; 72.3 µM (inactive) in the assay on UO-31; 11.7 µM (inactive) with SNB-75; 19.8 µM (inactive) in the assay with HL-60; 31.4 µM (inactive) in the assay with A498; > 100 µM (inactive) with UACC-62.

For the compound `O=C(NN1C(=O)CS(=O)(=O)C1c1ccc(C(F)(F)F)cc1)c1ccncc1` (stereo not drawn), the GI50 in the assay on CCRF-CEM, with OVCAR-5, in the assay on NCI-H226, in the assay with NCI-H522, with RPMI-8226 and in the assay on CAKI-1 was > 100 µM (inactive) each time. Moreover, the GI50 in the assay with SF-295, in the assay on NCI-H23, in the assay on HCC 2998, in the assay on ACHN, in the assay on MOLT-4 and in the assay with HOP-92 was > 100 µM (inactive) in each case. Also, the GI50 in the assay on SK-MEL-2, with NCI-H460, with SNB-75, in the assay with HL-60 and in the assay with A498 was > 100 µM (inactive) each time.

In the case of `CCOC(=O)C1=CC(C)(C(=O)OCC)Nc2c(nc(OC)n(C)c2=O)N1` (stereo not drawn), the GI50 in the assay with CCRF-CEM, with OVCAR-5, in the assay with NCI-H226, in the assay with NCI-H522, in the assay on MCF7 and in the assay on RPMI-8226 was > 10 µM (inactive) each time. For the same compound, the GI50 in the assay with CAKI-1, in the assay with SF-295, in the assay with NCI-H23, in the assay on HCC 2998, in the assay on ACHN and in the assay on MOLT-4 was > 10 µM (inactive) each time. Also, the GI50 in the assay with HOP-92, in the assay on SK-MEL-2, in the assay on NCI-H460, with UO-31, in the assay with SNB-75 and in the assay on A498 was > 10 µM (inactive) in each case.

`O=C(Nc1nccs1)c1cc(C2=CC=CC([N+](=O)[O-])C=C2)nc(S)n1` (stereo not drawn): the GI50 with CCRF-CEM, with OVCAR-5, in the assay with NCI-H226, with NCI-H522, with RPMI-8226 and with CAKI-1 was > 100 µM (inactive) throughout. The GI50 in the assay on SF-295, in the assay on NCI-H23, with HCC 2998, in the assay on ACHN, in the assay on MOLT-4 and in the assay on HOP-92 was > 100 µM (inactive) each time. Further, the GI50 in the assay with SK-MEL-2, in the assay on NCI-H460, with UO-31, in the assay on SNB-75, with HL-60 and with A498 was > 100 µM (inactive) in each case. For the same compound, in the assay with UACC-62, the GI50 was > 100 µM (inactive).

For `CN1CCN(Cn2nc(COc3ccc(Cl)cc3)n(/N=C/c3ccc(-c4ccc(Cl)cc4Cl)o3)c2=S)CC1`, the GI50 with CCRF-CEM was 0.247 µM (active); in the assay on OVCAR-5, 6.46 µM (inactive); in the assay on NCI-H226, 19.6 µM (inactive); in the assay with NCI-H522, 3.72 µM (inactive); with MCF7, 8.32 µM (inactive); in the assay on CAKI-1, 14.2 µM (inactive). Besides, the GI50 with SF-295 is 13.4 µM (inactive); in the assay on HCC 2998 it was 3.18 µM (inactive); with ACHN it was 19.7 µM (inactive); with MOLT-4 it was 16.7 µM (inactive); in the assay with HOP-92, 8.47 µM (inactive); in the assay with SK-MEL-2, 18.3 µM (inactive). In addition, the GI50 with NCI-H460 is 17.8 µM (inactive); in the assay with UO-31 it was 17.6 µM (inactive); with A498, 18.3 µM (inactive).

For the compound `CC1(C)N/C(=C\C=O)C(C)(C)N1O`, the GI50 with CCRF-CEM, in the assay on OVCAR-5, in the assay on NCI-H226, in the assay on MCF7, in the assay on RPMI-8226 and in the assay on CAKI-1 was > 100 µM (inactive) each time. Moreover, the GI50 with SF-295, in the assay on NCI-H23, in the assay with HCC 2998, with ACHN, with MOLT-4 and in the assay on HOP-92 was > 100 µM (inactive) in each case. Moreover, the GI50 with SK-MEL-2, with NCI-H460, with UO-31, in the assay with HL-60 and in the assay with UACC-62 was > 100 µM (inactive) in each case.

As to `O=C(OC(=O)n1ccc2ccccc21)n1ccc2ccccc21`, the GI50 in the assay on CCRF-CEM is > 100 µM (inactive); with OVCAR-5, > 100 µM (inactive); with NCI-H226, > 100 µM (inactive); with MCF7 it was > 100 µM (inactive); with RPMI-8226 it was > 100 µM (inactive); in the assay with CAKI-1, > 96.4 µM (inactive). The GI50 is > 92.3 µM (inactive) in the assay with SF-295; > 100 µM (inactive) with NCI-H23; > 100 µM (inactive) in the assay with HCC 2998; > 100 µM (inactive) in the assay on MOLT-4; > 100 µM (inactive) with HOP-92; > 100 µM (inactive) in the assay with SK-MEL-2. The GI50 with NCI-H460 is > 100 µM (inactive); in the assay on UO-31, 75.7 µM (inactive); with SNB-75, 84.1 µM (inactive); in the assay on HL-60, > 100 µM (inactive); with A498, > 100 µM (inactive); in the assay on UACC-62, > 100 µM (inactive).

Turning to `COc1ccc(-c2c(C#N)c(NC(=S)NC(=O)c3ccccc3)nc3c2CCCC3)cc1OC`, the GI50 in the assay on CCRF-CEM is 50.7 µM (inactive); with OVCAR-5, 98.2 µM (inactive); in the assay with MCF7 it was 46.3 µM (inactive); in the assay on RPMI-8226, 42 µM (inactive); in the assay with CAKI-1, 49.5 µM (inactive); with SF-295 it was 56.6 µM (inactive). The GI50 with NCI-H23 is 67.9 µM (inactive); with ACHN, 72.3 µM (inactive); with MOLT-4, 27 µM (inactive); in the assay on NCI-H460 it was 35 µM (inactive); in the assay on UO-31, 35.2 µM (inactive); in the assay with SNB-75, 22.3 µM (inactive). For the same compound, the GI50 with HL-60 is 34.1 µM (inactive); in the assay with UACC-62, 44.5 µM (inactive).

As for `CC1(C)CCc2ccc(OCCC(=O)O)cc2O1`, the GI50 with CCRF-CEM, with OVCAR-5, in the assay with NCI-H226, in the assay on NCI-H522, with RPMI-8226 and in the assay with CAKI-1 was > 100 µM (inactive) throughout. Also, the GI50 with SF-295, with NCI-H23, in the assay with ACHN, with MOLT-4, with HOP-92 and with SK-MEL-2 was > 100 µM (inactive) throughout. Further, the GI50 was > 100 µM (inactive) in the assay on NCI-H460; > 100 µM (inactive) with UO-31; 83.4 µM (inactive) with SNB-75; > 100 µM (inactive) with HL-60; > 100 µM (inactive) in the assay on UACC-62.

As to `CCOc1cc(C(=O)O)c2c(ccc3ccc(OC)c(OC)c32)c1OC`, the GI50 with CCRF-CEM, in the assay with OVCAR-5, in the assay with NCI-H226, in the assay with NCI-H522, in the assay on MCF7 and in the assay with RPMI-8226 was > 100 µM (inactive) each time. In addition, the GI50 with CAKI-1, in the assay with SF-295, with NCI-H23, with HCC 2998, in the assay with ACHN and in the assay with MOLT-4 was > 100 µM (inactive) in each case. The GI50 in the assay on HOP-92, in the assay on SK-MEL-2, in the assay with NCI-H460, with UO-31, in the assay on SNB-75 and in the assay with HL-60 was > 100 µM (inactive) throughout. Also, the GI50 in the assay on UACC-62 is > 100 µM (inactive).
